Activity calls are given as the source filed them. The rule behind the calls is not given here.
What was measured:
[1] = Plasma concentration in SCID mouse xenografted with ALK-positive human SUP-M2 cells at 30 mg/kg, po bid for 12 days; assay type: ADME, organism-based; parameters: dose 30 mg/kg, route oral
[2] = target: Vascular endothelial growth factor receptor 3 (Homo sapiens) (UniProt P35916); experiment: Inhibition of FLT4 at 1 uM
[3] = Plasma clearance in Sprague-Dawley rat at 1 mg/kg, iv by LC/MS/MS analysis; assay type: ADME, organism-based; parameters: dose 1 mg/kg, route intravenous
[4] = test system: Receptor-type tyrosine-protein kinase FLT3 (Homo sapiens), P36888 [D835H]; experiment: Inhibition of FLT3 D835H mutant at 0.1 uM
[5] = target: Mitogen-activated protein kinase 9 (Homo sapiens) (UniProt P45984); experiment: Inhibition of JNK2 at 0.1 uM
[6] = target: Serine/threonine-protein kinase PAK 3 (Homo sapiens) (UniProt O75914); experiment: Inhibition of PAK3 at 0.1 uM
[7] = target: Leukocyte tyrosine kinase receptor (Homo sapiens) (UniProt P29376); experiment: Inhibition of LTK at 0.1 uM
[8] = AUC in Sprague-Dawley rat at 1 mg/kg, iv; assay type: ADME, organism-based; parameters: dose 1 mg/kg, route intravenous; settings: plasma
[9] = target: Tyrosine-protein kinase Fer (Homo sapiens) (UniProt P16591); experiment: Inhibition of FER at 0.1 uM
[10] = target: T1, ALK tyrosine kinase receptor (Homo sapiens, UniProt Q9UM73); settings: 0.1 uM
Description: Inhibition of ALK at 0.1 uM

Mus musculus [11] = experiment: Toxicity in SCID mouse xenografted with human SUP-M2 cells at 55 mg/kg, po BID for 12 days; assay type: organism-based; parameters: dose 55 mg/kg, route oral; settings: in vivo, 288 h
[12] = AUC in SCID mouse at 1 mg/kg, iv; assay type: ADME, organism-based; parameters: dose 1 mg/kg, route intravenous; settings: plasma
KARPAS-299 = experiment: Growth inhibition of ALK-positive human KARPAS299 cells by MTS assay; assay type: functional, cell-based
[13] = target: NUAK family SNF1-like kinase 1 (Homo sapiens) (UniProt O60285); experiment: Inhibition of ARK5 at 1 uM
[14] = Oral bioavailability in beagle dog at 10 mg/kg; assay type: ADME, organism-based, Canis lupus familiaris; settings: in vivo
[15] = target: NUAK family SNF1-like kinase 1 (Homo sapiens) (UniProt O60285); experiment: Inhibition of ARK5 at 0.1 uM
[16] = target: Dual specificity protein kinase TTK (Homo sapiens) (UniProt P33981); experiment: Inhibition of TTK at 0.1 uM
[17] = target: Ribosomal protein S6 kinase alpha-2 (Homo sapiens) (UniProt Q15349); experiment: Inhibition of RPS6KA2 at 0.1 uM
[18] = target: Dual specificity protein kinase TTK (Homo sapiens) (UniProt P33981); experiment: Inhibition of TTK at 1 uM
[19] = target: Platelet-derived growth factor receptor beta (Homo sapiens) (UniProt P09619); experiment: Inhibition of PDGFRB at 0.1 uM
[20] = Tmax in SCID mouse at 10 mg/kg, po; assay type: ADME, organism-based; parameters: dose 10 mg/kg, route oral; settings: in vivo
[21] = target: T1, ALK tyrosine kinase receptor; settings: 1 uM
Description: Inhibition of ALK at 1 uM

[22] = test system: Epidermal growth factor receptor (Homo sapiens), P00533 [L858R]; experiment: Inhibition of EGFR L858R mutant at 1 uM; assay type: protein assay
[23] = test system: Epidermal growth factor receptor (Homo sapiens), P00533 [L861Q]; experiment: Inhibition of EGFR L861Q mutant at 0.1 uM; assay type: protein assay
K562 [24] = experiment: Growth inhibition of ALK-negative human K562 cells up to 1 uM by MTS assay; assay type: functional, cell-based
[25] = Volume of distribution in SCID mouse at 1 mg/kg, iv; assay type: ADME, organism-based; parameters: dose 1 mg/kg, route intravenous; settings: in vivo
[26] = Half life in beagle dog at 1 mg/kg, iv; assay type: ADME, organism-based, Canis lupus familiaris; parameters: dose 1 mg/kg, route intravenous; settings: in vivo
[27] = Inhibition of FLT3 ITD mutant at 0.1 uM
[28] = Oral bioavailability in Sprague-Dawley rat at 5 mg/kg; assay type: ADME, organism-based; settings: in vivo
Mus musculus [29] = experiment: Antitumor activity in ALK-positive human SUP-M2 cells xenografted in SCID mouse assessed as inhibition of NPM-ALK autophosphorylation in tumor lysate at 30 mg/kg, po administered as single dose measured after 12 hrs; assay type: functional; settings: SUP-M2, Neoplasm, read-out: TGI
[30] = target: Serine/threonine-protein kinase 3 (Homo sapiens) (UniProt Q13188); experiment: Inhibition of MST2 at 1 uM
[31] = Half life in SCID mouse at 1 mg/kg, iv; assay type: ADME, organism-based; parameters: dose 1 mg/kg, route intravenous; settings: in vivo
[32] = Plasma clearance in beagle dog at 1 mg/kg, iv by LC/MS/MS analysis; assay type: ADME, organism-based, Canis lupus familiaris; parameters: dose 1 mg/kg, route intravenous
[33] = target: Proto-oncogene tyrosine-protein kinase ROS (Homo sapiens) (UniProt P08922); experiment: Inhibition of ROS at 0.1 uM
K562 [34] = experiment: Induction apoptosis in ALK-negative human K562 cells assessed as activation of caspase 3/7 by fluorometric assay; assay type: functional, cell-based
[35] = target: Leukocyte tyrosine kinase receptor (Homo sapiens) (UniProt P29376); experiment: Inhibition of LTK at 1 uM
[36] = test system: Receptor-type tyrosine-protein kinase FLT3 (Homo sapiens), P36888 [N841I]; experiment: Inhibition of FLT3 N841I mutant at 0.1 uM
[37] = target: Macrophage colony-stimulating factor 1 receptor (Homo sapiens) (UniProt P07333); experiment: Inhibition of CSF1R at 0.1 uM
Mus musculus [38] = experiment: Toxicity in SCID mouse xenografted with human SUP-M2 cells assessed as weight loss at 30 mg/kg, po BID for 12 days; assay type: organism-based; parameters: dose 30 mg/kg, route oral; settings: in vivo, 288 h
[39] = target: Serine/threonine-protein kinase 33 (Homo sapiens) (UniProt Q9BYT3); experiment: Inhibition of STK33 at 0.1 uM
[40] = Antitumor activity against ALK-positive human SUP-M2 cells xenografted in SCID mouse assessed as partial tumor regression at 30 mg/kg, po bid after 12 days; assay type: functional
Mus musculus [41] = experiment: Toxicity in SCID mouse xenografted with human SUP-M2 cells at 30 mg/kg, po BID for 12 days; assay type: organism-based; parameters: dose 30 mg/kg, route oral; settings: in vivo, 288 h
Mus musculus [42] = experiment: Toxicity in SCID mouse xenografted with human SUP-M2 cells assessed as weight loss at 55 mg/kg, po BID for 12 days; assay type: organism-based; parameters: dose 55 mg/kg, route oral; settings: in vivo, 288 h
[43] = Plasma concentration in SCID mouse xenografted with ALK-positive human SUP-M2 cells at 10 mg/kg, po bid for 12 days; assay type: ADME, organism-based; parameters: dose 10 mg/kg, route oral
Insulin receptor = Insulin receptor (Homo sapiens, UniProt P06213); experiment: Inhibition of insulin receptor
[44] = target: Cyclin-G-associated kinase (Homo sapiens) (UniProt O14976); experiment: Inhibition of GAK at 0.1 uM
[45] = target: Non-receptor tyrosine-protein kinase TNK1 (Homo sapiens) (UniProt Q13470); experiment: Inhibition of TNK1 at 0.1 uM
[46] = target: Mitogen-activated protein kinase kinase kinase 5 (Homo sapiens) (UniProt Q99683); experiment: Inhibition of ASK1 at 1 uM
Mus musculus [47] = experiment: Toxicity in SCID mouse xenografted with human SUP-M2 cells at 10 mg/kg, po BID for 12 days; assay type: organism-based; parameters: dose 10 mg/kg, route oral; settings: in vivo, 288 h
[48] = test system: Epidermal growth factor receptor (Homo sapiens), P00533 [L858R]; experiment: Inhibition of EGFR L858R mutant at 0.1 uM; assay type: protein assay
[49] = AUC in beagle dog at 1 mg/kg, iv; assay type: ADME, organism-based, Canis lupus familiaris; parameters: dose 1 mg/kg, route intravenous; settings: plasma
[50] = AUC in beagle dog at 10 mg/kg, po; assay type: ADME, organism-based, Canis lupus familiaris; parameters: dose 10 mg/kg, route oral; settings: plasma
[51] = target: Serine/threonine-protein kinase PAK 3 (Homo sapiens) (UniProt O75914); experiment: Inhibition of PAK3 at 1 uM

Leukocyte tyrosine kinase receptor (Homo sapiens), sequence (P29376 whole entry): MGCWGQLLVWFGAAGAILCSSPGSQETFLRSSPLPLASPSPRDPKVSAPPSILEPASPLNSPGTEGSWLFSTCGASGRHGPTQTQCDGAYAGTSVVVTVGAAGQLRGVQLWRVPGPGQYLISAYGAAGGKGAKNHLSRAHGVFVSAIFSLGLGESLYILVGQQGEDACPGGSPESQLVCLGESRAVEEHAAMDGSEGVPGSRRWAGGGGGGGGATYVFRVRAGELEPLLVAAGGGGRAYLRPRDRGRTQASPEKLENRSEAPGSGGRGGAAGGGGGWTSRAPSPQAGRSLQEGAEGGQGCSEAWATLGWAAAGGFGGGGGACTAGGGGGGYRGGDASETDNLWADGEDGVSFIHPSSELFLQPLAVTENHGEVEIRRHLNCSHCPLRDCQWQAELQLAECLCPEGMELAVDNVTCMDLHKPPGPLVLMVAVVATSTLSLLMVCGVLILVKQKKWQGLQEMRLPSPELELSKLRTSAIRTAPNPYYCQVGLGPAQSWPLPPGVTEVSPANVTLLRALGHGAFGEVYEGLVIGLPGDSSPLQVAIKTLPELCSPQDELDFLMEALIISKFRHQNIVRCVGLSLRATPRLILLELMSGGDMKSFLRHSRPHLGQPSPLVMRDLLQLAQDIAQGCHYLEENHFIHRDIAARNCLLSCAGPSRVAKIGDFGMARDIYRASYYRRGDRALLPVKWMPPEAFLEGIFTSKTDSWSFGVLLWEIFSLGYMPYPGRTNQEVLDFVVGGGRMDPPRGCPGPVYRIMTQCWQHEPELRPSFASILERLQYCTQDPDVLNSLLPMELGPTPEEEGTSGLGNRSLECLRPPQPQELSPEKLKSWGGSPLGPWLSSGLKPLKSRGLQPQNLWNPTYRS
Serine/threonine-protein kinase PAK 3 (Homo sapiens), sequence (O75914 whole entry, looked up): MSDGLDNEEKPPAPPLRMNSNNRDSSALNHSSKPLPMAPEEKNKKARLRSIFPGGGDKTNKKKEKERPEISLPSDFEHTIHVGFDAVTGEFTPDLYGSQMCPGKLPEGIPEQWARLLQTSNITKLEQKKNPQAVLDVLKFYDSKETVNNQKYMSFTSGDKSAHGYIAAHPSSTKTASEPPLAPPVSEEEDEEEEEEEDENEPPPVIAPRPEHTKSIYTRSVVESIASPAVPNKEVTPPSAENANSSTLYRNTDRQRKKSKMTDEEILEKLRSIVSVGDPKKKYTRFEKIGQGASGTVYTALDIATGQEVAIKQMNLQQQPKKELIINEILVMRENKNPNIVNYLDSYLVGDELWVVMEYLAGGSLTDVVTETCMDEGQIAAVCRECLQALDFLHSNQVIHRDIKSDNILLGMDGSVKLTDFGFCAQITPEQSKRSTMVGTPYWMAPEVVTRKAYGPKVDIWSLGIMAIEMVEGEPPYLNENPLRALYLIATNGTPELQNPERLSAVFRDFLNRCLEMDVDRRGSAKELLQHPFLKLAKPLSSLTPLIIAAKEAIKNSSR
NUAK family SNF1-like kinase 1 (Homo sapiens), sequence (O60285 whole entry): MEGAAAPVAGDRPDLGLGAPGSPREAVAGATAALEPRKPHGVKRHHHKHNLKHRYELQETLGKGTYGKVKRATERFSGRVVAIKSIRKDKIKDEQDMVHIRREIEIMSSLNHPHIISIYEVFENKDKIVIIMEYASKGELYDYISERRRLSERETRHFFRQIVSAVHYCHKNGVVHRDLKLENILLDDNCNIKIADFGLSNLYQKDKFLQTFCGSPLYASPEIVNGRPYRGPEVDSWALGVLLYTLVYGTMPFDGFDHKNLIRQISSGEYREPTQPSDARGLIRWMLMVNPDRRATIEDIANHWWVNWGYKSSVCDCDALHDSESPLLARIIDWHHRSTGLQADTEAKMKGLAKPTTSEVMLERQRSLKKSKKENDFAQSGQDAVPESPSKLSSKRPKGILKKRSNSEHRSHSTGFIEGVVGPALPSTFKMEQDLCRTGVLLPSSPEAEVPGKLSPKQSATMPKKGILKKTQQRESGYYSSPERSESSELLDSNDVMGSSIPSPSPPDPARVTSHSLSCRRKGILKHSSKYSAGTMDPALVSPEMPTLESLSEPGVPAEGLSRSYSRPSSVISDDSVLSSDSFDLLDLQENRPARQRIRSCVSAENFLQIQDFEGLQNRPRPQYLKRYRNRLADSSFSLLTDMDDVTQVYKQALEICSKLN
Epidermal growth factor receptor (Homo sapiens), P00533 [L858R], sequence (P00533 whole entry L858R): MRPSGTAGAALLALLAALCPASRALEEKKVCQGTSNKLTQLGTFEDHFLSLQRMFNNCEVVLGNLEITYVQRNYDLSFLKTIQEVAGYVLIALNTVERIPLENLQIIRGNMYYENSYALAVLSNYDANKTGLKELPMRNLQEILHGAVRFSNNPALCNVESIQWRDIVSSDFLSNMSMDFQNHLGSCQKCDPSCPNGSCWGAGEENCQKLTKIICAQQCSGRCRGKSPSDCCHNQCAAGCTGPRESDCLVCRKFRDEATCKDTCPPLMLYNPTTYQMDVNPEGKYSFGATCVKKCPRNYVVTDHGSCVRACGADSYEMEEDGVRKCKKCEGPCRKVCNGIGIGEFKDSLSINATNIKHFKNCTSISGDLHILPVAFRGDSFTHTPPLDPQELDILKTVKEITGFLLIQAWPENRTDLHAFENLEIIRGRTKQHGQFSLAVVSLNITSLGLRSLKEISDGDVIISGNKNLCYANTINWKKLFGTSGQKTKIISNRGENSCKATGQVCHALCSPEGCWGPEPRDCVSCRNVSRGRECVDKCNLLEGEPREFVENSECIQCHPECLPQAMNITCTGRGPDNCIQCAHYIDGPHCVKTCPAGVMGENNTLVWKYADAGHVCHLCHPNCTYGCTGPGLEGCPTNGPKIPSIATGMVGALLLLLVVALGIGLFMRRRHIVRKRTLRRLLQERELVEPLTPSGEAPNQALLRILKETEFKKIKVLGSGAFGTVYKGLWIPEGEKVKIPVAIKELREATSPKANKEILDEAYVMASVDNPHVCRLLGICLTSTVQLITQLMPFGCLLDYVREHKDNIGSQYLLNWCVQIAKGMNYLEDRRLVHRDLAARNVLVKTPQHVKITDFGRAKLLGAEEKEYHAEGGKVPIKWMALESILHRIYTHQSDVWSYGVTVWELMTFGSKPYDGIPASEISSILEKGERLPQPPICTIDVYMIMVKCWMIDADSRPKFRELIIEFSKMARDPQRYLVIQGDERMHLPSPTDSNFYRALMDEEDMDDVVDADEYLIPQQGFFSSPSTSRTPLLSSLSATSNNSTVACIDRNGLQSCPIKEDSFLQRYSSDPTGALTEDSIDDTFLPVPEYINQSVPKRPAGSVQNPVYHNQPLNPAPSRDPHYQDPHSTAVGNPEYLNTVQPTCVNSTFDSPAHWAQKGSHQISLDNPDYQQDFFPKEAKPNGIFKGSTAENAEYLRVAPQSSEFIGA
Dual specificity protein kinase TTK (Homo sapiens), sequence (P33981 whole entry): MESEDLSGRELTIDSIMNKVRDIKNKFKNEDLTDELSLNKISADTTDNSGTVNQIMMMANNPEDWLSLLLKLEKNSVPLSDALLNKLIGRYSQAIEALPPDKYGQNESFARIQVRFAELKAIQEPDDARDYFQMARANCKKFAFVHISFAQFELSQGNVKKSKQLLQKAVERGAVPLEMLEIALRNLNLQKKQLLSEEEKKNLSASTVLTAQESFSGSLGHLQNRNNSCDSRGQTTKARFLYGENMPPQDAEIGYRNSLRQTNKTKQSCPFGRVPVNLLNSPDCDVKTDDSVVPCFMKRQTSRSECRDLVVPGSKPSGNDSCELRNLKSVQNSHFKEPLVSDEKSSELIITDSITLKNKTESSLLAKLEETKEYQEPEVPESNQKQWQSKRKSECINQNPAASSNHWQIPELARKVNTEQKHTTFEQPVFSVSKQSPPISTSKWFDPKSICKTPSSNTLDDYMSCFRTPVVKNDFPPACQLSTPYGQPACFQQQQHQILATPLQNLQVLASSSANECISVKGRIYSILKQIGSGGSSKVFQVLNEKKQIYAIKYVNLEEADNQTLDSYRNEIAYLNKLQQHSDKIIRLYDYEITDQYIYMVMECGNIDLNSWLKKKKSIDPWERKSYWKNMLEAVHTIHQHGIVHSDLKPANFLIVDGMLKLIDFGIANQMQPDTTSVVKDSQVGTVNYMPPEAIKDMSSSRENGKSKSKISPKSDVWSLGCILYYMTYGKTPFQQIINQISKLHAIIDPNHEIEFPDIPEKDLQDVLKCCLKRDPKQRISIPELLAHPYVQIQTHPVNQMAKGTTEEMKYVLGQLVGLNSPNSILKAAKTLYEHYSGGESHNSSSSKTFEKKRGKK
Tyrosine-protein kinase Fer (Homo sapiens), sequence (P16591 whole entry, looked up): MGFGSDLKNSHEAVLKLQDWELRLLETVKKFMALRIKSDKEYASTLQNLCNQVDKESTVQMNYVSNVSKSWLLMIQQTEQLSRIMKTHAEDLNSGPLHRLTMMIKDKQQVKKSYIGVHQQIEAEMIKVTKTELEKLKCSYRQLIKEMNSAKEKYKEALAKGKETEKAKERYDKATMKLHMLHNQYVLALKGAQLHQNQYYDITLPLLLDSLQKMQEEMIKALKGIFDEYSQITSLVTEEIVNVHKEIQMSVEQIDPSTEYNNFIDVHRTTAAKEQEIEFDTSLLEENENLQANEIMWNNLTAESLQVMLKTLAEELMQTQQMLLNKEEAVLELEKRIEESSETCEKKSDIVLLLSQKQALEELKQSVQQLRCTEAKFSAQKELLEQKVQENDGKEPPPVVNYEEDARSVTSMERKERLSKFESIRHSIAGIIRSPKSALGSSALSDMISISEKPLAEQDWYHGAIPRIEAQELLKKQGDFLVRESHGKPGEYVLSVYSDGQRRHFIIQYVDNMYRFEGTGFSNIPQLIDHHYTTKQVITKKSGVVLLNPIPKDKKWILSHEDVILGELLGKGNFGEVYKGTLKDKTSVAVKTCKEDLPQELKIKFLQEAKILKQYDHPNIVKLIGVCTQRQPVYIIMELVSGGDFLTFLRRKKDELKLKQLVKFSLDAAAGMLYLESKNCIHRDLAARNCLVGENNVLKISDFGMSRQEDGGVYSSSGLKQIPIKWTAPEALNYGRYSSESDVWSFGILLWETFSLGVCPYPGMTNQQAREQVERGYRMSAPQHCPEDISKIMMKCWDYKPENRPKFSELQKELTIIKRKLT

- concentration at 288 h [1]: 1500 ng/mL
- inhibition [2]: 100%
- clearance [3]: 13 mL/min/kg
- inhibition [4]: 85%
- inhibition [5]: < 50%
- inhibition [6]: < 50%
- inhibition [7]: 96%
- AUC [8]: 1280 ng·h/mL
- inhibition [9]: 93%
- inhibition [10]: 89%
- AUC [12]: 446 ng·h/mL
- EC50 (KARPAS-299): 200 nM
- inhibition [13]: 92%
- bioavailability [14]: 31%
- inhibition [15]: < 50%
- inhibition [16]: 96%
- inhibition [17]: < 50%
- inhibition [18]: 96%
- inhibition [19]: 66%
- Tmax [20]: 15 min
- inhibition [21]: 97%
- inhibition [22]: 92%
- inhibition [23]: < 50%
- Vd [25]: 0.9 L/kg
- half-life [26]: 66 min
- inhibition [27]: < 50%
- bioavailability [28]: 64%
- inhibition [30]: 91%
- half-life [31]: 18 min
- clearance [32]: 22 mL/min/kg
- inhibition [33]: 77%
- inhibition [35]: 98%
- inhibition [36]: < 50%
- inhibition [37]: < 50%
- inhibition [39]: 84%
- concentration at 288 h [43]: 337 ng/mL
- IC50 (Insulin receptor): 597 nM
- inhibition [44]: < 50%
- inhibition [45]: 93%
- inhibition [46]: 99%
- inhibition [48]: < 50%
- AUC [49]: 773 ng·h/mL
- AUC [50]: 2480 ng·h/mL
- inhibition [51]: 90%
Structure (SMILES): CCN1C(=O)CCCc2c1ccc(Nc1ncc(Cl)c(N[C@H]3[C@@H](C(N)=O)[C@@H]4C=C[C@H]3C4)n1)c2OC
- Activity (Mus musculus [11]): Non-toxic
- growth inhibition (GI) (K562 [24]): inactive
- inhibition in vivo at 30 mg/kg (Mus musculus [29]): > 80%
- Activity (K562 [34]): inactive
- Activity (Mus musculus [38]): Non-toxic
- Activity [40]: 100%
- Activity (Mus musculus [41]): Non-toxic
- Activity (Mus musculus [42]): Non-toxic
- Activity (Mus musculus [47]): Non-toxic

— ChEMBL document CHEMBL2040771, “Discovery of a potent inhibitor of anaplastic lymphoma kinase with in vivo antitumor activity” (ACS Med Chem Lett, 2010)
